These results are taken from patent US9670204B2, “Compounds and pharmaceutical compositions thereof for the treatment of inflammatory disorders” (Galapagos NV, priority 2013, dated 2017).

For assay [1], the target named is T1, hENPP2 (UniProtKB/SwissProt Q13822) (Homo sapiens (Human), UniProt Q13822). In words: hENPP2 biochemical assay, LPC as substrate. Particulars: LPC (palmitoyl 16:0) as substrate. The method, boiled down:
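Human ENPP2 in 50 mM Tris-HCl pH 8.5, 500 mM NaCl, 5 mM KCl, 10 mM CaCl2, 0.1% fatty-acid-free BSA, reacted 30 min at 37 °C with LPC 16:0 (150 µM solution added 1:1). Released choline measured via choline oxidase/peroxidase/TOOS/4-aminoantipyrine quinoneimine dye at 555 nm; IC50 reported.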

Assay [2] deals with T1, hENPP2. The assay can be described thus: fluorescent hENPP2 biochemical assay, FS-3 as substrate. As to conditions: read-out: FS3-IC50. Summed up: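 IC50 values come from fluorescence gained as FS-3 is hydrolysed (ex 485, em 520 nm). The reaction, started by adding 0.75 μM FS-3 solution, runs 30 min at 30° C after a 30 min room-temperature preincubation of compound with enzyme. Buffer: Tris-HCl pH 8.0 with NaCl, KCl, MgCl2, CaCl2 and 0.1% BSA.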

The next assay concerns LPA 18:2 in rat plasma. In words: Rat whole blood (plasma) LPA assay. Particulars: 2 h at 37 C, LPA 18:2 by LC-MS/MS. Format: biochemical. As for the experimental part:
Whole blood is collected from rats or mouse by exsanguinations on sodium heparin tube, then after centrifugation at 3000 rpm for 15 min at 4° C., plasma is stored at −80° C. Compounds are diluted in DMSO in concentration dependent manner then 0.5 μL are dispensed into 96-well plate placed in ice. Plasma is defrosted on ice then 49.5 μL of plasma are added into the well containing 0.5 μL of compound (1% DMSO final). Plates are covered with a lid in polypropylene and incubated at +37° C., 5% CO2, for 2 h under gentle shaking (except controls which are stored at −20° C.).
At the end of the incubation, controls are defrosted in ice and transferred in the incubated plates for LC-MS/MS analysis with a non GLP-validated method. For the analysis, plasma proteins from a 10 μL incubated plates are precipitated with an excess of methanol containing the internal standard, LPA 17:0. After centrifugation, the corresponding supernatant is injected on a C18 column. Analytes are eluted out of the column under isocratic conditions. An API5500 QTRAP mass spectrometer (ABSciex™) is used for the detection of LPA 18:2. No calibration curve is prepared for LPA 18:2, however relative quantities are evaluated based on the peak area.

In the case of `CCc1nc2ccc(N3CCN(CC(=O)N4CCC4)CC3)cn2c1N(C)c1nc(-c2ccc(F)cc2C#N)cs1` [Compound 167, 2-(2-((6-(4-(2-(azetidin-1-yl)-2-oxoethyl)piperazin-1-yl)-2-ethylimidazo[1,2-a]pyridin-3-yl)(methyl)amino)thiazol-4-yl)-5-fluorobenzonitrile], the IC50 on hENPP2 [1] was 0.01 to 100 nM; on hENPP2 [2], 0.01 to 100 nM; with LPA 18:2 in rat plasma, 100 to 500 nM.
With `CCc1nc2ccc(C3CCN(S(C)(=O)=O)CC3)cn2c1N(C)c1nc(-c2ccc(F)cc2)c(C#N)s1` [Compound 136, 2-((2-ethyl-6-(1-(methylsulfonyl)piperidin-4-yl)imidazo [1,2-a]pyridin-3-yl)(methyl)amino)-4-(4-fluorophenyl) thiazole-5-carbonitrile], the values for the concentration for half-maximal inhibition (IC50) against hENPP2 [1], at hENPP2 [2] and in the assay with LPA 18:2 in rat plasma were 100 to 500 nM, 0.01 to 100 nM and 0.01 to 100 nM, respectively.
For `CCc1nc2ccc(C3CCN(S(=O)(=O)CCCN(C)C)CC3)cn2c1N(C)c1nc(-c2ccc(F)cc2)c(CO)s1` [Compound 149, (2-((6-(1-(3-(dimethylamino)propyl-sulfonyl)piperidin-4-yl)-2-ethylimidazo[1,2-a]pyridin-3-yl)(methyl)amino)-4-(4-fluorophenyl)thiazol-5-yl)], the values for the IC50 against hENPP2 [1] and with LPA 18:2 in rat plasma were 100 to 500 nM and > 1000 nM, respectively.
In the case of `CCc1nc2ccc(N3CCN(C(=O)CCCN(C)C)CC3)cn2c1N(C)c1nc(-c2ccc(F)cc2)cs1` [Compound 53, 4-(dimethylamino)-1-(4-(2-ethyl-3-((4-(4-fluorophenyl)thiazol-2-yl)(methyl)amino)imidazo[1,2-a]pyridin-6-yl)piperazin-1-yl)butan-1-one], the concentration for half-maximal inhibition (IC50) is > 1000 nM on hENPP2 [1], 0.01 to 100 nM at hENPP2 [2] and > 1000 nM with LPA 18:2 in rat plasma.
Turning to `CCc1nc2ccc(C3CCN(CC(=O)N4CC[C@@H](O)C4)CC3)cn2c1N(C)c1nc(-c2ccc(F)cc2)c(C#N)s1` [Compound 142, (R)-2-((2-ethyl-6-(1-(2-(3-hydroxypyrrolidin-1-yl)-2-oxoethyl)piperidin-4-yl)imidazo[1,2-a]pyridin-3-yl)(methyl)amino)-4-(4-fluorophenyl)thiazole-5-carbonitrile], the half-inhibitory concentration (IC50) at hENPP2 [1] and in the assay on LPA 18:2 in rat plasma was 0.01 to 100 nM in each case.
As to `CCc1nc2ccc(N3CCN(CCO)CC3)cn2c1N(C)c1nc(-c2ccc(F)cc2)cs1` [Compound 180, 2-(4-(2-ethyl-3-((4-(4-fluorophenyl)thiazol-2-yl)(methyl)amino)imidazo [1,2-a]pyridin-6-yl)piperazin-1-yl)ethanol], the IC50 on hENPP2 [1] is > 1000 nM; on hENPP2 [2] it was 0.01 to 100 nM; with LPA 18:2 in rat plasma, > 1000 nM.
As to `CCc1nc2ccc(N3CCN(Cc4ncc[nH]4)CC3)cn2c1N(C)c1nc(-c2ccc(F)cc2)cs1` [Compound 226, N-(6-(4-((1H-imidazol-2-yl)methyl)piperazin-1-yl)-2-ethylimidazo[1,2-a]pyridin-3-yl)-4-(4-fluorophenyl)-N-methylthiazol-2-amine], the IC50 is > 1000 nM on hENPP2 [1], 0.01 to 100 nM on hENPP2 [2] and > 1000 nM with LPA 18:2 in rat plasma.
In the case of `CCc1nc2ccc(N3CCN(CC(=O)N4CC(O)C4)CC3)cn2c1N(C)c1nc(-c2ccc(F)cc2)c(C#N)s1` [Compound 138, 2-((2-ethyl-6-(4-(2-(3-hydroxyazetidin-1-yl)-2-oxoethyl)piperazin-1-yl)imidazo[1,2-a]pyridin-3-yl)(methyl)amino)-4-(4-fluorophenyl)thiazole-5-carbonitrile], the IC50 on hENPP2 [1], at hENPP2 [2] and in the assay on LPA 18:2 in rat plasma was 0.01 to 100 nM throughout.
For `CCc1nc2ccc(C3=CCN(S(=O)(=O)CCCO)CC3)cn2c1N(C)c1nc(-c2ccc(F)cc2)cs1` [Compound 75, 3-(4-(2-ethyl-3-((4-(4-fluorophenyl)thiazol-2-yl)(methyl)amino)imidazo[1,2-a]pyridin-6-yl)-5,6-dihydropyridin-1(2H)-ylsulfonyl)propan-1-ol], the IC50 is 500 to 1000 nM at hENPP2 [1], 0.01 to 100 nM at hENPP2 [2] and > 1000 nM in the assay with LPA 18:2 in rat plasma.
On the same counts, the results for `CCc1nc2ccc(N3CCN(CC(=O)N4CC(O)C4)CC3)cn2c1N(C)c1nc(-c2ccc(F)cc2C#N)cs1` [Compound 166, 2-(2-((2-ethyl-6-(4-(2-(3-hydroxyazetidin-1-yl)-2-oxoethyl)piperazin-1-yl)imidazo[1,2-a]pyridin-3-yl)(methyl)amino)thiazol-4-yl)-5-fluorobenzonitrile] are 0.01 to 100 nM, 0.01 to 100 nM and 500 to 1000 nM.
In the case of `CCc1nc2ccc(N3CCN(CC(=O)N(C)C)CC3)cn2c1N(C)c1nc(-c2ccc(F)cc2)c(C#N)s1` [Compound 140, 2-(4-(3-((5-cyano-4-(4-fluorophenyl)thiazol-2-yl)(methyl)amino)-2-ethylimidazo[1,2-a]pyridin-6-yl)piperazin-1-yl)-N,N-dimethylacetamide], the IC50 against hENPP2 [1] and with LPA 18:2 in rat plasma was 0.01 to 100 nM throughout.
`CCc1nc2ccc(N3CCN(C(=O)C4CCN(C(C)=O)C4)CC3)cn2c1N(C)c1nc(-c2ccc(F)cc2)cs1` (stereo not drawn) [Compound 48, 1-{3-[4-(2-Ethyl-3-{[4-(4-fluoro-phenyl)-thiazol-2-yl]-methyl-amino}-imidazo[1,2-a]pyridin-6-yl)-piperazine-1-carbonyl]-pyrrolidin-1-yl}-ethanone]: the IC50 on hENPP2 [1] and in the assay on LPA 18:2 in rat plasma was > 1000 nM each time.
Take `CCc1nc2ccc(C3=CCN(S(C)(=O)=O)CC3)cn2c1N(C)c1nc(-c2ccc(OC(F)(F)F)cc2)cs1` [Compound 72, N-(2-ethyl-6-(1-(methylsulfonyl)-1,2,3,6-tetrahydropyridin-4-yl)imidazo[1,2-a]pyridin-3-yl)-N-methyl-4-(4-(trifluoromethoxy)phenyl)thiazol-2-amine]: the IC50 against hENPP2 [1] was 100 to 500 nM; with LPA 18:2 in rat plasma, > 1000 nM.
In the same order, the values of `CN(c1nc(-c2ccc(F)cc2)c(CO)s1)c1c(CCC#N)nc2ccc(C3CCN(S(C)(=O)=O)CC3)cn12` [Compound 175, 3-(3-((4-(4-fluorophenyl)-5-(hydroxymethyl)thiazol-2-yl)(methyl)amino)-6-(1-(methylsulfonyl)piperidin-4-yl)imidazo[1,2-a]pyridin-2-yl)propanenitrile] are 500 to 1000 nM and 100 to 500 nM.
In the same order, the values of `CCc1nc2ccc(C3CCN(CC(=O)N4CC(CO)C4)CC3)cn2c1N(C)c1nc(-c2ccc(F)cc2)c(C#N)s1` [Compound 144, 2-((2-ethyl-6-(1-(2-(3-(hydroxymethyl)azetidin-1-yl)-2-oxoethyl)piperidin-4-yl)imidazo[1,2-a]pyridin-3-yl)(methyl)amino)-4-(4-fluorophenyl)thiazole-5-carbonitrile] are 0.01 to 100 nM and 0.01 to 100 nM.
`CCc1nc2c(C)cc(C3CCN(CC(=O)N4CC(O)C4)CC3)cn2c1N(C)c1nc(-c2ccc(F)cc2)c(C#N)s1` [Compound 10, 2-((2-ethyl-6-(1-(2-(3-hydroxyazetidin-1-yl)-2-oxoethyl)piperidin-4-yl)-8-methylimidazo[1,2-a]pyridin-3-yl)(methyl)amino)-4-(4-fluorophenyl)thiazole-5-carbonitrile]: in the assay with LPA 18:2 in rat plasma, the IC50 fell in the range of 100 to 500 nM.
The same measure, in the same setting: to `CCc1nc2c(C)cc(N3CCN(CC(=O)N4CC(O)C4)C(C)(C)C3)cn2c1N(C)c1nc(-c2ccc(F)cc2)c(C#N)s1` [Compound 6, 2-((2-ethyl-6-(4-(2-(3-hydroxyazetidin-1-yl)-2-oxoethyl)-3,3-dimethylpiperazin-1-yl)-8-methylimidazo[1,2-a]pyridin-3-yl)(methyl)amino)-4-(4-fluorophenyl)thiazole-5-carbonitrile] belongs 100 to 500 nM.
Still for that read-out and setting: to `CCc1nc2cc(F)c(N3CCN(CC(=O)N4CC(O)C4)CC3)cn2c1N(C)c1nc(-c2ccc(F)cc2)cs1` [Compound 19, 2-[4-(2-Ethyl-7-fluoro-3-{[4-(4-fluoro-phenyl)-thiazol-2-yl]-methyl-amino}-imidazo[1,2-a]pyridin-6-yl)-piperazin-1-yl]-1-(3-hydroxy-azetidin-1-yl)-ethanone] belongs > 1000 nM.
In the case of `CCc1nc2ccc(N3CCN(CC(=O)N4CC[C@@H](O)C4)CC3)cn2c1N(C)c1nc(-c2ccc(F)cc2)cs1` [Compound 26, (R)-2-(4-(2-ethyl-3-((4-(4-fluorophenyl)thiazol-2-yl)(methyl)amino)imidazo[1,2-a]pyridin-6-yl)piperazin-1-yl)-1-(3-hydroxypyrrolidin-1-yl)ethanone], the half-inhibitory concentration (IC50) at hENPP2 [1] was 100 to 500 nM; in the assay on LPA 18:2 in rat plasma, > 1000 nM.
On the same counts, the results for `CCC(=O)N1CCC(c2ccc3nc(CC)c(N(C)c4nc(-c5ccc(F)cc5)c(CO)s4)n3c2)CC1` [Compound 154, 1-(4-(2-ethyl-3-((4-(4-fluorophenyl)-5-(hydroxymethyl)thiazol-2-yl)(methyl)amino)imidazo[1,2-a]pyridin-6-yl)piperidin-1-yl)propan-1-one] are 100 to 500 nM and 500 to 1000 nM.

Usually IC50 stands for the point on the concentration scale where inhibition reaches its midpoint.
